In brackets after ≈: the same amount, converted by molar mass. Activity calls are given as the source filed them. The calls are words filed in the database; no cut-off is given here.
Legend:
[1] = Cytotoxicity against human THLE cells; type: cell-based
Cytochrome P450 3A4 = Cytochrome P450 3A4 (Homo sapiens, UniProt P08684); assay: Inhibition of CYP3A4 (unknown origin) at 3 uM; type: ADME
[2] = Half life in Sprague-Dawley rat at 10 mg/kg, sc; type: ADME, organism-based; design: dose 10 mg/kg, route subcutaneous; details: in vivo
[3] = Cmax in Sprague-Dawley rat at 6 mg/kg, po; type: ADME, organism-based; design: dose 6 mg/kg, route oral; details: in vivo
[4] = AUC in Sprague-Dawley rat at 6 mg/kg, po; type: ADME, organism-based; design: dose 6 mg/kg, route oral; details: plasma
[5] = Volume of distribution at steady state in Sprague-Dawley rat at 2 mg/kg, iv; type: ADME, organism-based; design: dose 2 mg/kg, route intravenous; details: in vivo, read-out: Vdss
Rattus norvegicus [6] = assay: Toxicity in Sprague-Dawley rat assessed as effect on serum total cholesterol level at 3 to 100 mg/kg, sc qd for 14 days relative to vehicle-treated control; type: organism-based; design: dose 3-100 mg/kg, route subcutaneous; details: in vivo, 336 h
[7] = Cmax in Sprague-Dawley rat at 10 mg/kg, sc; type: ADME, organism-based; design: dose 10 mg/kg, route subcutaneous; details: in vivo
Cytochrome P450 2C9 = Cytochrome P450 2C9 (Homo sapiens, UniProt P11712); assay: Inhibition of CYP2C9 (unknown origin) at 3 uM; type: ADME
Cytochrome P450 2C9, sequence (P11712 whole entry): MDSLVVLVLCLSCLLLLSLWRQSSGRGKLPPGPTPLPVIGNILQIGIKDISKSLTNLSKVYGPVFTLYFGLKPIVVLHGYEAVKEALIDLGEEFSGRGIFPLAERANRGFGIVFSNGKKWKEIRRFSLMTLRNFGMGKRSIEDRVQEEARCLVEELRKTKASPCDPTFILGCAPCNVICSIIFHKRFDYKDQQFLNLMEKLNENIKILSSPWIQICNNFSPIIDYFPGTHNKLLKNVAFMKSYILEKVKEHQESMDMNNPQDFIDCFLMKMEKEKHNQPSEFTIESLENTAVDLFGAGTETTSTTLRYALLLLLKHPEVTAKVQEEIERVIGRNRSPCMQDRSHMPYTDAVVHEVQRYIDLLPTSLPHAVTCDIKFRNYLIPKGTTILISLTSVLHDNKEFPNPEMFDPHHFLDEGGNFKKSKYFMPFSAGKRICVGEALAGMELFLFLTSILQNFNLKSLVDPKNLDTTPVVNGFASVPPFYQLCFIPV

Cytochrome P450 2C8 = target: T1, Cytochrome P450 2C8 (Homo sapiens, UniProt P10632); assay: Inhibition of CYP2C8 (unknown origin) at 3 uM; type: ADME
T1 sequence (P10632 whole entry): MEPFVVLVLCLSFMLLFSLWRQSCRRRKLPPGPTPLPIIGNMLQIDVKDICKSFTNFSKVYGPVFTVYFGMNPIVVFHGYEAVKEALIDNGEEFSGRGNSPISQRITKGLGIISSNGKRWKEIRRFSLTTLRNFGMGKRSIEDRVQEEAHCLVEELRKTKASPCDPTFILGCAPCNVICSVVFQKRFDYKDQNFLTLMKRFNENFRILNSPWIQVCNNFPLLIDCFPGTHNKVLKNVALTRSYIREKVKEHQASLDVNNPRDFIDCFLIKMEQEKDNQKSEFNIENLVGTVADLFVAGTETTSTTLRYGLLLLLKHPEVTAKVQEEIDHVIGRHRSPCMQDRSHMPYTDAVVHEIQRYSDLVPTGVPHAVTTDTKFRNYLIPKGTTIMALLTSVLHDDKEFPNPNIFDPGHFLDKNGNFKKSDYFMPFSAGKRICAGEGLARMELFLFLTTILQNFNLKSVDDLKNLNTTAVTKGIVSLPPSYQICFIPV

[8] = Oral bioavailability in Sprague-Dawley rat at 6 mg/kg; type: ADME, organism-based; details: in vivo
[9] = Clearance in human liver microsomes; type: ADME; details: read-out: CLH
[10] = AUC in Sprague-Dawley rat at 2 mg/kg, iv; type: ADME, organism-based; design: dose 2 mg/kg, route intravenous; details: plasma
[11] = Aqueous solubility of the compound at pH 6.5; type: physicochemical
Rattus norvegicus [12] = assay: Toxicity in Sprague-Dawley rat assessed as effect on serum LDL level at 3 to 100 mg/kg, sc qd for 14 days relative to vehicle-treated control; type: organism-based; design: dose 3-100 mg/kg, route subcutaneous; details: in vivo, 336 h
[13] = AUC in Sprague-Dawley rat at 10 mg/kg, sc; type: ADME, organism-based; design: dose 10 mg/kg, route subcutaneous; details: plasma
Rattus norvegicus [14] = assay: Toxicity in Sprague-Dawley rat assessed as effect on serum luteinizing hormone level at 3 to 10 mg/kg, sc qd for 14 days relative to vehicle-treated control; type: organism-based; design: dose 3-10 mg/kg, route subcutaneous; details: in vivo, 336 h
[15] = target: Voltage-gated inwardly rectifying potassium channel KCNH2 (Homo sapiens, UniProt Q12809); assay: Binding affinity to human ERG by dofetilide binding assay
Voltage-gated inwardly rectifying potassium channel KCNH2, sequence (Q12809 whole entry): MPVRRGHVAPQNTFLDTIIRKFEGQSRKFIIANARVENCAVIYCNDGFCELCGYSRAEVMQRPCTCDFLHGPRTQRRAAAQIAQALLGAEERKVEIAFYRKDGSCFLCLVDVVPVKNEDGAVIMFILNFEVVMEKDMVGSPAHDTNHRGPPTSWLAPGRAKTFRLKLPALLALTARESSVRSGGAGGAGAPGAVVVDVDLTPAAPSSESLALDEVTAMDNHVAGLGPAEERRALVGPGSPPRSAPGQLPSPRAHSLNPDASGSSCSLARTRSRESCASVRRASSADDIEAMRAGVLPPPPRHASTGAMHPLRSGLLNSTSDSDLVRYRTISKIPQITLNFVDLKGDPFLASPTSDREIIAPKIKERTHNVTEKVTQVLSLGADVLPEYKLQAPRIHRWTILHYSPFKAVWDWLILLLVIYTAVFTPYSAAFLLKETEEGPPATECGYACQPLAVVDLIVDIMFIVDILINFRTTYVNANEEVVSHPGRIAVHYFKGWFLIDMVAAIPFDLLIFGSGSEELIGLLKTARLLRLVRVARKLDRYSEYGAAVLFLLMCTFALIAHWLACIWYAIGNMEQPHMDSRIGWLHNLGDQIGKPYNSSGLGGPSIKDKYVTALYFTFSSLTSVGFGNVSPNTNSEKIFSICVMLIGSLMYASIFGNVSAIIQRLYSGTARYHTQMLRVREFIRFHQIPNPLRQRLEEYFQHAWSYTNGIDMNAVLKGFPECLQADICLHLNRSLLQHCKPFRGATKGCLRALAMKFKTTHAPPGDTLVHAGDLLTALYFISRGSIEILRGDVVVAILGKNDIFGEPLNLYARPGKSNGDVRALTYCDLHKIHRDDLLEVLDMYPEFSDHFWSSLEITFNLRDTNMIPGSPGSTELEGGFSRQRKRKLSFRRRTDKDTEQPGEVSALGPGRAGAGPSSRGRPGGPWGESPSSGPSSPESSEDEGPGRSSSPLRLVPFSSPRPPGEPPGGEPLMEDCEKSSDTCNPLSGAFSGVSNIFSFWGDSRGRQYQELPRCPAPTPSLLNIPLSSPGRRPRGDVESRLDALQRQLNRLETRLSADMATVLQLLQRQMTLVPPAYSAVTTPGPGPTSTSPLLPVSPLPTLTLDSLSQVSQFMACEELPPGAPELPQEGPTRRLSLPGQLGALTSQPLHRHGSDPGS

Rattus norvegicus [16] = assay: Increase in levator ani muscle weight in orchidectomized Sprague-Dawley rat at 3 to 30 mg/kg, sc qd for 4 days relative to vehicle-treated control; type: functional, organism-based
Androgen receptor [17] = target: T2, Androgen receptor (Homo sapiens, UniProt P10275); assay: Displacement of [3H]mibolerone from full length human AR expressed in COS cells after 3.5 hrs by liquid scintillation counting; type: cell-based
T2 sequence (P10275 whole entry): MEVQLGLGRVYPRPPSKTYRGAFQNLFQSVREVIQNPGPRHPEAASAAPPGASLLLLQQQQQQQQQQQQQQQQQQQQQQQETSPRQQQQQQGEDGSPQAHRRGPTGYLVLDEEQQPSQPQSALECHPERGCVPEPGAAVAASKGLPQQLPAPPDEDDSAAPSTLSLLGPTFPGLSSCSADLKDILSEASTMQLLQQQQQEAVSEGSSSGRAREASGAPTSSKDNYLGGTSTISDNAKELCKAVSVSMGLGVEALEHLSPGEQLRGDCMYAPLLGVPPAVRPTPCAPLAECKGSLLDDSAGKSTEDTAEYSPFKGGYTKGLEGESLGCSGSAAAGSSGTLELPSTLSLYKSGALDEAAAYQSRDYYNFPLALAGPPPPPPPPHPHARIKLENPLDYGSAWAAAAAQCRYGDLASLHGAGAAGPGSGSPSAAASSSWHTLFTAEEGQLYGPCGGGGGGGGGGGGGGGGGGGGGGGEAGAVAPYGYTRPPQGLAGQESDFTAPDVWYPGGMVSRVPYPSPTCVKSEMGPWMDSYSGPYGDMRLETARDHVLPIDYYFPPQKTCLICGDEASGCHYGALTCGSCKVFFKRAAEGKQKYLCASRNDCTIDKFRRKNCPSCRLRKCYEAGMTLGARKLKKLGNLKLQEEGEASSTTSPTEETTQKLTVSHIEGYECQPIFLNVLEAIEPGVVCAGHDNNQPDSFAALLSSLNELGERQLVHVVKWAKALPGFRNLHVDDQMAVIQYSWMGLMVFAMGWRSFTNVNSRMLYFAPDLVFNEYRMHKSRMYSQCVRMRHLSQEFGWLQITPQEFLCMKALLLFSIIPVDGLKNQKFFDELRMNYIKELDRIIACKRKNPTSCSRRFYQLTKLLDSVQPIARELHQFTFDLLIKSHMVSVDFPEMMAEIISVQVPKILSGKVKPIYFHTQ

[18] = Bioavailability in Sprague-Dawley rat at 10 mg/kg, sc; type: ADME, organism-based; details: in vivo
Rattus norvegicus [19] = assay: Toxicity in Sprague-Dawley rat assessed as effect on serum HDL level at 3 to 100 mg/kg, sc qd for 14 days relative to vehicle-treated control; type: organism-based; design: dose 3-100 mg/kg, route subcutaneous; details: in vivo, 336 h
Rattus norvegicus [20] = assay: Increase in prostate tissue weight in orchidectomized Sprague-Dawley rat at 3 to 30 mg/kg, sc qd for 4 days relative to vehicle-treated control; type: ADME, organism-based, Prostate gland; design: dose 3-30 mg/kg, route subcutaneous; details: in vivo, 96 h
[21] = Half life in Sprague-Dawley rat at 2 mg/kg, iv; type: ADME, organism-based; design: dose 2 mg/kg, route intravenous; details: in vivo
Rattus norvegicus [22] = assay: Toxicity in Sprague-Dawley rat assessed as effect on serum triglyceride level at 3 to 100 mg/kg, sc qd for 14 days relative to vehicle-treated control; type: organism-based; design: dose 3-100 mg/kg, route subcutaneous; details: in vivo, 336 h
[23] = Toxicity in sc dosed Sprague-Dawley rat administered qd for 14 days; type: organism-based; details: in vivo
Androgen receptor [24] = target: T2, Androgen receptor; assay: Binding affinity to human AR NTD (1 to 561 aa) expressed in CV1 cells coexpressing human AR-LBD (644-919 aa) assessed as N/C-termini interaction by androgenic assay; type: cell-based, CV-1
Rattus norvegicus [25] = assay: Toxicity in Sprague-Dawley rat assessed as effect on serum luteinizing hormone level at 100 mg/kg, sc qd for 14 days relative to vehicle-treated control; type: organism-based; design: dose 100 mg/kg, route subcutaneous; details: in vivo, 336 h
[26] = Half life in Sprague-Dawley rat at 6 mg/kg, po; type: ADME, organism-based; design: dose 6 mg/kg, route oral; details: in vivo
[27] = Tmax in Sprague-Dawley rat at 6 mg/kg, po; type: ADME, organism-based; design: dose 6 mg/kg, route oral; details: in vivo
Cytochrome P450 1A2 = target: T3, Cytochrome P450 1A2 (Homo sapiens, UniProt P05177); assay: Inhibition of CYP1A2 (unknown origin) at 3 uM; type: ADME
T3 sequence (P05177 whole entry): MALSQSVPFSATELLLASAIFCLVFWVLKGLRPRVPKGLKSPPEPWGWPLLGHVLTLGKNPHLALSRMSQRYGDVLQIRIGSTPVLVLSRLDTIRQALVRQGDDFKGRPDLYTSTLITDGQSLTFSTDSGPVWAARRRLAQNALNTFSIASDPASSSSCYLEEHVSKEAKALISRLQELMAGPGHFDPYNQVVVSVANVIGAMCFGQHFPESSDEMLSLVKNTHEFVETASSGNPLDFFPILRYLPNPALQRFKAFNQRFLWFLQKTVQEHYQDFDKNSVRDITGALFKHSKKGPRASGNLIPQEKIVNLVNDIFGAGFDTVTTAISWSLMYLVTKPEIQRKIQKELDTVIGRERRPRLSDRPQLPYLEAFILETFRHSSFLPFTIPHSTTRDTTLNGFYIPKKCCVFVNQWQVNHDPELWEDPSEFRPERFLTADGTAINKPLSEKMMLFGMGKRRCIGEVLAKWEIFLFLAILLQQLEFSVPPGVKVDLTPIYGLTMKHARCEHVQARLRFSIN

Rattus norvegicus [28] = assay: Increase in seminal vesicle weight in orchidectomized Sprague-Dawley rat at 3 to 30 mg/kg, sc qd for 4 days relative to vehicle-treated control; type: ADME, organism-based; design: dose 3-30 mg/kg, route subcutaneous; details: in vivo, 96 h
Androgen receptor [29] = target: T2, Androgen receptor; assay: Agonist activity at human AR expressed in CV1 cells after 17 hrs by luciferase reporter gene assay; type: cell-based, CV-1
[30] = Tmax in Sprague-Dawley rat at 10 mg/kg, sc; type: ADME, organism-based; design: dose 10 mg/kg, route subcutaneous; details: in vivo
Cytochrome P450 2D6 = Cytochrome P450 2D6 (Homo sapiens, UniProt P10635); assay: Inhibition of CYP2D6 (unknown origin) at 3 uM; type: ADME
Cytochrome P450 2D6, sequence (P10635 whole entry): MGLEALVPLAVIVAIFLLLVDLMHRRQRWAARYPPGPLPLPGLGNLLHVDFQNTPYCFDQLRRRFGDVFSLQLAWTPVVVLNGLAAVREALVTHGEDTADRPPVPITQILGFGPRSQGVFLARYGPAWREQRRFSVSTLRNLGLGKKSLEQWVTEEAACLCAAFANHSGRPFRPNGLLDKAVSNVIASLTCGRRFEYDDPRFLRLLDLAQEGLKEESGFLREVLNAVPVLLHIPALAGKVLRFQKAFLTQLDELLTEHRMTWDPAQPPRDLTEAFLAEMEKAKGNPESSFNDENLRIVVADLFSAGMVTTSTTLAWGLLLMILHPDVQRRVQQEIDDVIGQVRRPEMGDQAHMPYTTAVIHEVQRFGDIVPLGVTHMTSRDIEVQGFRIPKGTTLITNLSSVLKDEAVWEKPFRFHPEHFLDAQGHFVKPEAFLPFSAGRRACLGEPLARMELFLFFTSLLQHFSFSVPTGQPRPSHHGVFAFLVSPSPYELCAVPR

Cytochrome P450 3A4, sequence (P08684 whole entry): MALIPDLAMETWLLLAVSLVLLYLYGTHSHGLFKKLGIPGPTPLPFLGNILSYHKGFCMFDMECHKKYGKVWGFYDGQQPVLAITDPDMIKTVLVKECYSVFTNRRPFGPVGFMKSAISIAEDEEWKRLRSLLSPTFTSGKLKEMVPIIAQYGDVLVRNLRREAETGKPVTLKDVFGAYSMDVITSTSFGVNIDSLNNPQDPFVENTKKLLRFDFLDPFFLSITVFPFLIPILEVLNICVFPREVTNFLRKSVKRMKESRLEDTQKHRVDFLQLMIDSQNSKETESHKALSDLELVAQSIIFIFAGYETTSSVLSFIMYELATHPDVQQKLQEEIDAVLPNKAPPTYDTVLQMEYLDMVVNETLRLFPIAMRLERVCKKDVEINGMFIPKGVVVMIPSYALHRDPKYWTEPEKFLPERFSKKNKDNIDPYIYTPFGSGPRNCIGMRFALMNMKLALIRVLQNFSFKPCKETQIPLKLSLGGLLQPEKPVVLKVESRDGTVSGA

With `C[C@](O)(COc1ccc(F)cc1)C(=O)N1CCc2c(C#N)cccc21` the IC50 [1] was > 300000 nM, the “inhibition (INH)” value (Cytochrome P450 3A4) was “Not Active” and the half-life [2] was 6 h. The Cmax [3] was 254 ng/mL, the AUC [4] was 3750 ng·h/mL and the Vd [5] was 6 L/kg. The Activity (Rattus norvegicus [6]) was “Non-toxic”, the Cmax [7] was 166 ng/mL and the “inhibition (INH)” value (Cytochrome P450 2C9) was “Not Active”. The “inhibition (INH)” value (Cytochrome P450 2C8) was “Not Active”, the bioavailability [8] was > 100% and the microsomal CLint [9] was 21 µL/min/mg. For the same compound, the AUC [10] was 1100 ng·h/mL, the solubility [11] was 14 µM (≈ 4.76 µg/mL) and the Activity (Rattus norvegicus [12]) was “Non-toxic”. The AUC [13] was 2030 ng·h/mL, the Activity (Rattus norvegicus [14]) was “Non-toxic” and the IC50 [15] was > 100000 nM. For the same compound, the Activity (Rattus norvegicus [16]) was “Active”, the IC50 (Androgen receptor [17]) was 12.7 nM and the bioavailability [18] was 37%. For the same compound, the Activity (Rattus norvegicus [19]) was “Non-toxic”, the Activity (Rattus norvegicus [20]) was “Non-toxic” and the half-life [21] was 5 h. For the same compound, the Activity (Rattus norvegicus [22]) was “Non-toxic”, the MTD at 336 h [23] was 100 mg/kg and the EC50 (Androgen receptor [24]) was > 10000 nM. For the same compound, the Activity (Rattus norvegicus [25]) was “Non-toxic”, the half-life [26] was 5 h and the Tmax [27] was 8 h. The “inhibition (INH)” value (Cytochrome P450 1A2) was “Not Active”, the Activity (Rattus norvegicus [28]) was “Non-toxic” and the EC50 (Androgen receptor [29]) was 2.5 nM. For the same compound, the Tmax [30] was 4 h and the “inhibition (INH)” value (Cytochrome P450 2D6) was “Not Active”.

Reference: ChEMBL document CHEMBL3232788, “1-(2-Hydroxy-2-methyl-3-phenoxypropanoyl)indoline-4-carbonitrile derivatives as potent and tissue selective androgen receptor modulators” (J Med Chem, 2014)
